{"source": "ChEMBL document CHEMBL1201862", "about": "“PubChem BioAssay data set” (2004)", "key": {"[1]": {"experiment": "Trypanosoma cruzi growth suppression in host cells – NIH3T3 host cells, beta-gal luminescence, confirmation (AID 2044);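 also: intracellular parasites grown in NIH/3T3 mouse fibroblasts as host cells; luminescent beta-galactosidase reporter signal from transgenic T. cruzi replicating inside host cells; inhibitors lower the luminescence signal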", "format": "functional, cell-based"}, "[2]": {"experiment": "loss of viability in HepG2 cells – cell-based, CellTiter-Glo, cherry-picked, cytotoxicity control for Shn3 inhibitor project, dose response (AID 624134)", "format": "functional"}, "[3]": {"experiment": "reduction of Shn3 3'UTR-driven luciferase in osteoblasts – cell-based, Clone20 osteoblasts, firefly luciferase, cherry-picked, dose response (AID 624132)", "format": "functional"}, "CHO": {"test_system": "CHO", "experiment": "CHO cell viability loss, potency – luminescence, cytotoxicity control for TLR9-MyD88 binding inhibitor project, dose response (AID 588339);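 also: CHO cells stably coexpressing TLR9 and MyD88 fusions from primary screen; compound exposure lasted 48 hours before viability readout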", "format": "functional, cell-based, hamster", "settings": "Cricetulus griseus"}, "[4]": {"experiment": "EF1alpha-driven Renilla reporter with control 3'UTR suppression – Clone20-Shn3RL cells, dual-Glo, cherry-pick, set 2, counter-screen for Shn3 3'UTR targeting project, dose response (AID 720724)", "format": "functional, cell-based", "settings": "Dual-Go Shn3RL"}, "[5]": {"target": "Bifunctional protein GlmU (Mycobacterium tuberculosis, UniProt P9WMN3)", "sequence (P9WMN3 whole entry)": "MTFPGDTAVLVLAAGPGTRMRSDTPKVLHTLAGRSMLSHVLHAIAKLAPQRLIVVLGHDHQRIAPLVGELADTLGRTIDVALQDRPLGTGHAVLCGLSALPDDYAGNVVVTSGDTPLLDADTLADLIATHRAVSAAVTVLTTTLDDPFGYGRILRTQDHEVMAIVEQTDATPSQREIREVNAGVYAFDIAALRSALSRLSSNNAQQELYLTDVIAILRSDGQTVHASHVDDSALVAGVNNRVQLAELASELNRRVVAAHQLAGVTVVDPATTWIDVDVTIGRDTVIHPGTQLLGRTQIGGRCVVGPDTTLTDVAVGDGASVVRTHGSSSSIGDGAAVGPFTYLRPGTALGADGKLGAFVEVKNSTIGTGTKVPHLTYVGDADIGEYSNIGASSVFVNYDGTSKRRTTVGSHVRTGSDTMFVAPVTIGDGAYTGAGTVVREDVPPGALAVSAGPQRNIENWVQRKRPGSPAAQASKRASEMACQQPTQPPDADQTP", "experiment": "Inhibitors of Mycobacterial Glucosamine-1-phosphate acetyl transferase (GlmU). Secondary screen.", "parameters": "species or system Mycobacterium tuberculosis H37Rv"}, "[6]": {"experiment": "NIH3T3 cell viability loss – ATP luminescence, mouse fibroblasts, counter-screen, dose response (AID 2010);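 also: cells exposed to compound for about 90 hours before reading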", "format": "functional, cell-based"}, "[7]": {"experiment": "Shn3 transcript knock-down in Clone20 cells – cell-based, qPCR, cherry-pick, dose response (AID 743415)", "format": "functional"}, "Beta Lactamase": {"target": "Beta Lactamase (Pseudomonas aeruginosa, UniProt Q932Y6)", "sequence (Q932Y6 whole entry)": "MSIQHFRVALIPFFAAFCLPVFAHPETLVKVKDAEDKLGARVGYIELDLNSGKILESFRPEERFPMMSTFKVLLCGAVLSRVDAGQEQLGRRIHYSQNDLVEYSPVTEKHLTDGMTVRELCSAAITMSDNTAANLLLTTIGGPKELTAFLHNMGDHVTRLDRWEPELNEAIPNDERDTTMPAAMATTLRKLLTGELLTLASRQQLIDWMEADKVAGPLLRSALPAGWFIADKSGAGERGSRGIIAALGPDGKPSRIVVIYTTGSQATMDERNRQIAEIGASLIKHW", "experiment": "BLA reporter interference, concentration series – BLA reporter cells, FRET fluorescence, artefact control for TLR9-MyD88 binding inhibitor project, dose response (AID 588341)", "format": "cell-based"}, "[8]": {"experiment": "non-specific 3'UTR reporter inhibition in Clone20-Shn3RL – cell-based, Renilla luciferase, cherry-picked, counter-screen for Shn3 inhibitor project, dose response (AID 624133)", "format": "functional"}, "Large T antigen": {"target": "Large T antigen (Simian virus 40, UniProt P03070)", "sequence (P03070 whole entry)": "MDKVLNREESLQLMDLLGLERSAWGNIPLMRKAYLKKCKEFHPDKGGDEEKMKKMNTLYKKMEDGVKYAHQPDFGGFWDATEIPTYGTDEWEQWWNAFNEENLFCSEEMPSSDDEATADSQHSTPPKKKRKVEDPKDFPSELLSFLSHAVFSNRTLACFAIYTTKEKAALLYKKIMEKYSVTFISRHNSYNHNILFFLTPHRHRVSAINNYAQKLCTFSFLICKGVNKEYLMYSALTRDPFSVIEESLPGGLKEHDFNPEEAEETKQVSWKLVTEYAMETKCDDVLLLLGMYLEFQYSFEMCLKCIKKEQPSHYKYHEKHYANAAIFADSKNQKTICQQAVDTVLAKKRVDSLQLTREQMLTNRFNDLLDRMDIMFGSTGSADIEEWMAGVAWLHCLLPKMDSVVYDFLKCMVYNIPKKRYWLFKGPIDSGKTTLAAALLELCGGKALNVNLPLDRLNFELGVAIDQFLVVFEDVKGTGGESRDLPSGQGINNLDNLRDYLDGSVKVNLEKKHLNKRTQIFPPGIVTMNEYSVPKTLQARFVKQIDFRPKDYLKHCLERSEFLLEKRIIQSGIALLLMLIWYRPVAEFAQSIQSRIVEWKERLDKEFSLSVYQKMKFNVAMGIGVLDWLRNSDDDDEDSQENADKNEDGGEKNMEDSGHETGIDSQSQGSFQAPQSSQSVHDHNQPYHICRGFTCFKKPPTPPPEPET", "format": "functional, Betapolyomavirus macacae"}, "[9]": {"experiment": "Shn3 3'UTR reporter signal decrease – cell-based, Clone20 osteoblasts, firefly luciferase, cherry-pick, set 2, Schnurri-3 inhibitor project, dose response (AID 720490)", "format": "functional"}, "[10]": {"target": "T1, Heat shock factor protein 1 (Mus musculus, UniProt P38532)", "T1 sequence (P38532 whole entry)": "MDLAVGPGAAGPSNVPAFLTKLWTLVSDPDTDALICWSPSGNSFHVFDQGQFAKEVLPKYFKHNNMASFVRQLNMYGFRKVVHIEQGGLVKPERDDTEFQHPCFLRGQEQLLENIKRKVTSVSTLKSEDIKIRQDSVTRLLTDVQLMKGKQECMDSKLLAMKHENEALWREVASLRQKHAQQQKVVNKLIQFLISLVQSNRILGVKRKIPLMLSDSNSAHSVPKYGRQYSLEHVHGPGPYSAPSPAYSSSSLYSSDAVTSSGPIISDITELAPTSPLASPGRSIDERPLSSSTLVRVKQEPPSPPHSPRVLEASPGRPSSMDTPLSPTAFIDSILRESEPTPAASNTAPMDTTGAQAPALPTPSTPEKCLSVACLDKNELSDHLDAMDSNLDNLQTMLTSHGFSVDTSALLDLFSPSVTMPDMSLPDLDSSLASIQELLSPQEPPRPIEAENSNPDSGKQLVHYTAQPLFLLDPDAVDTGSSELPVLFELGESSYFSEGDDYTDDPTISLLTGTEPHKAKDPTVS", "experiment": "enhancement of HSF1-driven luciferase signal – cell-based, NIH3T3, luminescence, dose retest, confirmation (AID 435004);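 also: stress induced by proteasome inhibitor MG132 added 30 min after compound; actives raise luminescence as potentiators of the MG132 stress response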", "format": "functional"}, "[11]": {"target": "RNA-editing ligase 1, mitochondrial (Trypanosoma brucei brucei, UniProt P86926)", "sequence (P86926 whole entry)": "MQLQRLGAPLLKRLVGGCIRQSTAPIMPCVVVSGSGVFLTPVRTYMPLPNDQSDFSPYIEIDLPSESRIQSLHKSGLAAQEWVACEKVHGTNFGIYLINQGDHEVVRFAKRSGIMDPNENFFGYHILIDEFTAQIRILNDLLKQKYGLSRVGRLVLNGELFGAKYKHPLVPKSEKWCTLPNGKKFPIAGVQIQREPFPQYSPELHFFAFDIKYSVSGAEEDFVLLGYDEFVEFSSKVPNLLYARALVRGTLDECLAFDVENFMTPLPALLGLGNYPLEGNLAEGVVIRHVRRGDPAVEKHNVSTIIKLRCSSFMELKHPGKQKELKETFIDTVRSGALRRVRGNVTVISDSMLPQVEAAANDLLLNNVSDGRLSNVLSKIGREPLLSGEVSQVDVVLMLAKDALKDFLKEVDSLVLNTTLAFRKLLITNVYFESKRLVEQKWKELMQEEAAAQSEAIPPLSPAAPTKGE", "experiment": "inhibition of trypanosome RNA editing ligase – biochemical, fluorescence, Trypanosoma brucei, dose response (AID 1117295)", "format": "functional"}, "Fibrinogen beta chain [12]": {"target": "T2, Fibrinogen beta chain (Homo sapiens, UniProt P02675)", "T2 sequence (P02675 whole entry, the tested form may be a part)": "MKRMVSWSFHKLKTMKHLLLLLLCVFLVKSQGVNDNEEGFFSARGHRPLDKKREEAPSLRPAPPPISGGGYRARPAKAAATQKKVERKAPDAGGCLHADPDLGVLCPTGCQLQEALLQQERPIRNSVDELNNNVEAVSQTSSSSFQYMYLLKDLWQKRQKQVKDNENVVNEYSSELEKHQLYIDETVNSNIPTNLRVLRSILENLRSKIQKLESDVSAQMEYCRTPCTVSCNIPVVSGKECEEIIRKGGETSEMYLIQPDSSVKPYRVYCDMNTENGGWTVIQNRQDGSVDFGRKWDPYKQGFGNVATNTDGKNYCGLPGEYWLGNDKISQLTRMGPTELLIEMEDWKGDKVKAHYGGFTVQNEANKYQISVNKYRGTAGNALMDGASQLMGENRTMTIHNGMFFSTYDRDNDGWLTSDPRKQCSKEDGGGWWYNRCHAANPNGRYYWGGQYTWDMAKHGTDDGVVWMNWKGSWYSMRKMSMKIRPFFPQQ", "experiment": "Fluorescence polarization-based biochemical high throughput dose response assay to identify inhibitors that disrupt the binding of a cyclic peptide (Tn7) to the fibrin proteolytic product D-Dimer and fragment E complex [DD(E )]."}, "[13]": {"target": "T3, Endoribonuclease toxin MazF (Escherichia coli K-12, UniProt P0AE70)", "T3 sequence (P0AE70 whole entry)": "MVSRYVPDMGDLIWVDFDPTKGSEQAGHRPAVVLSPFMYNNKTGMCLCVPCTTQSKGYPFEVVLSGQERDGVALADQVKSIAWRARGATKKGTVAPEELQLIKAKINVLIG", "experiment": "substrate-only fluorescence increase artefacts – biochemical, single-stranded RNase substrate, counter-screen for MazEF activator project, dose response (AID 588502)", "format": "functional"}, "[14]": {"target": "T3, Endoribonuclease toxin MazF", "experiment": "activation of MazEF endoribonuclease cleavage – biochemical, fluorescence, single-stranded RNA substrate, uHTS hits, dose response (AID 588481)", "format": "functional"}, "Fibrinogen beta chain [15]": {"target": "T2, Fibrinogen beta chain", "experiment": "Fluorescence polarization-based biochemical high throughput dose response assay to identify inhibitors that disrupt the binding of a cyclic peptide (Tn6) to the fibrin proteolytic product D-Dimer and fragment E complex [DD(E )]."}, "[16]": {"experiment": "viability loss in HepG2 liver cells – cell-based, ATP luminescence, cherry-pick, set 6, cytotoxicity control, dose response (AID 1053125)", "format": "functional"}, "CAAX prenyl protease 2 [17]": {"target": "T4, CAAX prenyl protease 2 (Saccharomyces cerevisiae S288c, UniProt Q03530)", "T4 sequence (Q03530 whole entry)": "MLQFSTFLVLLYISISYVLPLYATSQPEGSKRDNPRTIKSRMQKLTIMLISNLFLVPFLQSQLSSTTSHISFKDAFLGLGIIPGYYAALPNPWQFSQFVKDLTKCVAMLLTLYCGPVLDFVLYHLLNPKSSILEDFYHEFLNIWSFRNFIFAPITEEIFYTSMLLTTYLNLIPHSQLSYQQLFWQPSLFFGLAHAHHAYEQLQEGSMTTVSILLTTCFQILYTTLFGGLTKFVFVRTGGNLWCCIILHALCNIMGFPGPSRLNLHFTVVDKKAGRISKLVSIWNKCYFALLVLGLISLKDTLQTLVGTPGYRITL", "format": "biochemical"}, "cells [18]": {"experiment": "cells"}, "cells [19]": {"experiment": "cells", "settings": "HEK293"}, "CAAX prenyl protease 2 [20]": {"target": "T5, CAAX prenyl protease 2 (Homo sapiens, UniProt Q9Y256)", "T5 sequence (Q9Y256 whole entry)": "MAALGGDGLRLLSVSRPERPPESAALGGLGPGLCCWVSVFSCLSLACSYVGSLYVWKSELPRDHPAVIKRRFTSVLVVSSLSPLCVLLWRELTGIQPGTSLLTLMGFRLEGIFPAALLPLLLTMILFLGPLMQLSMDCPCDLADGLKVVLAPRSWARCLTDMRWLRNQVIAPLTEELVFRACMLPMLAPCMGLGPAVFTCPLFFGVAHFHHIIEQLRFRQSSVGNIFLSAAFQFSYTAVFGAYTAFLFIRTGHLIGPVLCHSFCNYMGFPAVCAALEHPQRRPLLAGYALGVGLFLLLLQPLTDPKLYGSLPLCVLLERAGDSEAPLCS", "experiment": "inhibition of Ras-converting CAAX protease Rce1 – biochemical, yeast membranes, quenched-peptide fluorescence, cherry-pick, dose response (AID 588849)"}, "Trypsin": {"target": "Trypsin (Sus scrofa, UniProt P00761)", "sequence (P00761 whole entry)": "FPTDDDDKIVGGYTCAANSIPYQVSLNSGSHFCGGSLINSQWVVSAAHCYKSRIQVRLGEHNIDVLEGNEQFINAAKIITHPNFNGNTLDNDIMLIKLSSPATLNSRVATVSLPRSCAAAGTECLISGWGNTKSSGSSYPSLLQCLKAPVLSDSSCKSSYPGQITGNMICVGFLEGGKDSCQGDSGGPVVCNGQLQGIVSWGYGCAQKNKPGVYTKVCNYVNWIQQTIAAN", "experiment": "trypsin protease activity blockade – biochemical, quenched peptide fluorescence, cherry-pick, selectivity assay for Rce1 protease inhibitor project, dose response (AID 488789)"}, "[21]": {"target": "Potassium channel subfamily K member 9 (Homo sapiens, UniProt Q9NPC2)", "sequence (Q9NPC2 whole entry)": "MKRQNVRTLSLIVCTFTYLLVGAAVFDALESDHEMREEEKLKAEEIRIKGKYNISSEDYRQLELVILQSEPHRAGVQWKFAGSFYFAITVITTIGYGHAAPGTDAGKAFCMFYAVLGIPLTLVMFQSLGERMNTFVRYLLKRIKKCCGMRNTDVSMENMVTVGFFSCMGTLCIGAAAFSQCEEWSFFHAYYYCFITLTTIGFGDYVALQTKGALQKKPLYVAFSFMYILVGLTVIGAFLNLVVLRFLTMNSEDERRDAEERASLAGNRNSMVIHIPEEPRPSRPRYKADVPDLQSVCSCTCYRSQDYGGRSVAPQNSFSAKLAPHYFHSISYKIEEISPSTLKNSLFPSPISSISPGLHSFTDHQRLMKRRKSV", "experiment": "TASK3 channel blockers, electrophysiology – cell-based, automated electrophysiology, selectivity assay for TASK1 (KCNK3) inhibitor project, SAR follow-up (AID 652210)", "format": "functional"}, "[22]": {"target": "Potassium channel subfamily K member 3 (Homo sapiens, UniProt O14649)", "sequence (O14649 whole entry)": "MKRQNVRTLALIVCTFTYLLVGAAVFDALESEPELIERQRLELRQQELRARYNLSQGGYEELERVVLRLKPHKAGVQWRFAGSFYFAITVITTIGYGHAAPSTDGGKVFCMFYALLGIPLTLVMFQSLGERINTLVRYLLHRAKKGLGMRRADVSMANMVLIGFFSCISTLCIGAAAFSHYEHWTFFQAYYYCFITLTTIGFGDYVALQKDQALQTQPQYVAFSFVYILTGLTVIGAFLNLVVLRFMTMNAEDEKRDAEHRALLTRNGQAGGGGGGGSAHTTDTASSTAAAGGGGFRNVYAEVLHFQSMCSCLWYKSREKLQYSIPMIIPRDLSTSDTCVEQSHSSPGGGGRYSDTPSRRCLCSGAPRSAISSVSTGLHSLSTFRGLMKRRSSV", "experiment": "inhibition of human KCNK3 channel flux – CHO cells, FluxOR thallium flux, SAR follow-up (AID 652212)", "format": "functional"}, "[23]": {"target": "Delta-type opioid receptor (Homo sapiens, UniProt P41143)", "sequence (P41143 whole entry)": "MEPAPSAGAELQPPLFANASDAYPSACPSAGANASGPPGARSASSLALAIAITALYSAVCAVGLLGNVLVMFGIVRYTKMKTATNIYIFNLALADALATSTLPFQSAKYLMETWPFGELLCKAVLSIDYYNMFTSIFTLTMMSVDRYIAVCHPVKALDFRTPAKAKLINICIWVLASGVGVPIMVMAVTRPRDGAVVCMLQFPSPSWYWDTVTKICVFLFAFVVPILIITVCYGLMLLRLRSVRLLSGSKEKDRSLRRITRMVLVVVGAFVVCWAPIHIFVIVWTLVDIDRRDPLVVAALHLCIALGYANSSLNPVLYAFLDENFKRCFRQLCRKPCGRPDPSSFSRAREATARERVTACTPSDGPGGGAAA", "experiment": "Late-stage results from the probe development effort to identify antagonists of OPRK1: fluorescence-based cell-based dose response OPRD1 counterscreen.", "format": "functional"}, "Mu-type opioid receptor": {"target": "Mu-type opioid receptor (Homo sapiens, UniProt P35372)", "experiment": "Late-stage results from the probe development effort to identify antagonists of OPRK1: luminescence-based cell-based dose response OPRM1 counterscreen.", "format": "functional"}, "[24]": {"target": "E3 ubiquitin-protein ligase UHRF1 (Homo sapiens, UniProt Q96T88)", "sequence (Q96T88 whole entry, the tested form may be a part)": "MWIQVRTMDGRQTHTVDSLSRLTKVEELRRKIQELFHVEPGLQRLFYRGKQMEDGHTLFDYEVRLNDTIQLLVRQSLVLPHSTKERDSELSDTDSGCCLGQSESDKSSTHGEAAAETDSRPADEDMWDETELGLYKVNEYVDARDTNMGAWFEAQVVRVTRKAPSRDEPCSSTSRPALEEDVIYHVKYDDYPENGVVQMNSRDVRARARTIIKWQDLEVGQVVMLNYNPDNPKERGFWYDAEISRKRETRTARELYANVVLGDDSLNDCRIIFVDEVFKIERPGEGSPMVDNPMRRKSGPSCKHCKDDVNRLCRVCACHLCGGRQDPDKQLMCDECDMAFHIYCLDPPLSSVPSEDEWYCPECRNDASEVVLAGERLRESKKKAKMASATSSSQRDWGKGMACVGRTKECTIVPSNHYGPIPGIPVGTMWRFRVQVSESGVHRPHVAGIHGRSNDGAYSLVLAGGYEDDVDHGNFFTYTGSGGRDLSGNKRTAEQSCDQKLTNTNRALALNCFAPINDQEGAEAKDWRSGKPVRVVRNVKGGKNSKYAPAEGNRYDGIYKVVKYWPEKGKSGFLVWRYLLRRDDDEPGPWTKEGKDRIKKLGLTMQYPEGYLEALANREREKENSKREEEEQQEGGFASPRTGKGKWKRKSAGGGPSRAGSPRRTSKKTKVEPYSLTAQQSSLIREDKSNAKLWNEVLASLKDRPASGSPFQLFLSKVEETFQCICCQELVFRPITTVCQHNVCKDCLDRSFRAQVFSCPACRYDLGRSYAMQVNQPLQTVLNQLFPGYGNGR", "experiment": "Counterscreen for inhibitors of 5-meCpG-binding domain protein 2 (MBD2): TRFRET-based biochemical high throughput dose response assay to identify inhibitors of binding of ubiquitin-like with PHD and ring finger domains 1 (UHRF1) to methylated oligonucleotide."}, "[25]": {"experiment": "IC50 of Artemis nuclease activity blockers – biochemical, fluorescence intensity, dose response (AID 720701);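 also: Artemis endonuclease enzyme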", "format": "functional"}}, "note": "The source made the active and inactive calls.", "data": [{"smiles": "O=C(c1nnsc1[S+]([O-])c1ccc(Cl)cc1)N1CCOCC1", "note": "(stereo not given)", "values": [{"measurement": "EC50", "setting": "[1]", "value": "1.85 µM (active)"}, {"measurement": "AC50", "setting": "[2]", "value": "27.3 µM (active)"}, {"measurement": "AC50", "setting": "[3]", "value": "0.93 µM (active)"}, {"measurement": "IC50", "setting": "CHO", "value": "2.21 µM (active)"}, {"measurement": "AC50", "setting": "[4]", "value": "3.79 µM (active)"}, {"measurement": "IC50", "setting": "[5]", "value": "181 µM (active)"}, {"measurement": "EC50", "setting": "[6]", "value": "2.13 µM (active)"}, {"measurement": "AC50", "setting": "[7]", "value": "13.4 µM (active)"}, {"measurement": "IC50", "setting": "Beta Lactamase", "value": "30.8 µM (inactive)"}, {"measurement": "AC50", "setting": "[8]", "value": "7.35 µM (active)"}, {"measurement": "IC50", "setting": "Large T antigen", "value": "31.6 µM (active)"}, {"measurement": "AC50", "setting": "[9]", "value": "2.43 µM (active)"}, {"measurement": "EC50", "setting": "[10]", "value": "9.23 µM (active)"}]}, {"smiles": "C[C@@H](NCCCn1cnc2c(OCc3ccccc3)ncnc21)c1cccc2ccccc12", "values": [{"measurement": "IC50", "setting": "[11]", "value": "> 96.6 µM (inactive)"}]}, {"smiles": "Cc1ccc2c(c1)[C@H]1[C@H](CO2)[C@H](c2ccccc2)[C@]2(C)C(=O)N(Cc3ccc(F)cc3)CC(=O)N12", "values": [{"measurement": "IC50", "setting": "Fibrinogen beta chain [12]", "value": "> 83.3 µM (inactive)"}, {"measurement": "EC50", "setting": "[13]", "value": "63.9 µM (inactive)"}, {"measurement": "EC50", "setting": "[14]", "value": "3.83 µM (active)"}, {"measurement": "IC50", "setting": "Fibrinogen beta chain [15]", "value": "> 83.3 µM (inactive)"}]}, {"smiles": "COC(=O)C1=CN(CC2CCCO2)C=C(C(=O)OC)C1c1cccc(O)c1", "note": "(stereo not given)", "values": [{"measurement": "AC50", "setting": "[16]", "value": "> 52 µM (inactive)"}, {"measurement": "AC50", "setting": "CAAX prenyl protease 2 [17]", "value": "10.6 µM (active)"}, {"measurement": "AC50", "setting": "cells [18]", "value": "11.1 µM (active)"}, {"measurement": "AC50", "setting": "cells [19]", "value": "> 52 µM (inactive)"}, {"measurement": "AC50", "setting": "CAAX prenyl protease 2 [20]", "value": "2.08 µM (active)"}, {"measurement": "AC50", "setting": "Trypsin", "value": "9.88 µM (active)"}]}, {"smiles": "COc1ccccc1C(=O)Nc1cc(NC(=O)c2ccccc2C(C)C)ccc1F", "values": [{"measurement": "IC50", "setting": "[21]", "value": "0.71 µM (active)"}, {"measurement": "IC50", "setting": "[22]", "value": "0.109 µM (active)"}]}, {"smiles": "COC(=O)c1cc(Br)cnc1N1CCC(NC2CCCCC2)CC1", "values": [{"measurement": "IC50", "setting": "[23]", "value": "19 µM (inactive)"}, {"measurement": "IC50", "setting": "Mu-type opioid receptor", "value": "1 µM (active)"}]}, {"smiles": "CN(C)C(=O)c1cccc(-c2cnc3c(NC=O)cc(-c4ccccc4N(C)C)cn23)c1", "values": [{"measurement": "IC50", "setting": "[24]", "value": "> 43.8 µM (inactive)"}]}, {"smiles": "N#Cc1nc(-c2ccc(OCc3ccc(Cl)cc3)cc2)oc1NCCCn1ccnc1", "values": [{"measurement": "IC50", "setting": "[25]", "value": "4.52 µM (active)"}]}]}
